# How the values were obtained:
# c-Src kinase domain [1] = molecular target: T1, c-Src kinase domain (Homo sapiens, UniProt P12931); experiment: ADP-Quest continuous fluorimetric kinase assay (Michaelis-Menten parameters and initial rates); assay type: biochemical; conditions: c-Src kinase domain 10 nM, 100 μM ATP, 37 °C, three to five replicates, error = standard error of global Michaelis-Menten fit
# Description: A fluorescence-based assay from Eurofins (ADP Quest) was used to measure the Michaelis-Menten kinetic parameters for phosphorylation of the consensus peptides by purified tyrosine kinase domains. In this assay, ADP production as a result of kinase activity is coupled to the production of resorufin, a fluorophore that emits signal at 590 nm. For all experiments, the assay reactions were set up as described in the provided assay kit protocol, in a 384 well plate format. The peptide solutions were serially diluted in 100 mM Tris, pH 8.0, and the kinases were diluted to 50 nM in buffer (10 mM HEPES, 100 mM NaCl, 1 mM TCEP, 5 mM MgCl2, 10% (v/v) glycerol). The final reaction mixtures contained 10 nM of kinase with 100 μM of ATP. […] Phosphorylation reaction progress was monitored by measuring fluorescence at excitation 530 nm and emission 590 nm every 2 min at 37 °C on a plate reader (BioTek Synergy Neo 2). The fluorescence units (RFU) were converted to μM ADP by comparison to a standard curve, and the initial rates were extracted from the linear regime of the reaction progress curves. Initial rates were also measured for samples containing each kinase but lacking a peptide substrate, to account for background ATP hydrolysis. This background rate was subtracted from the rates measured in the presence of peptide. […]
# c-Abl kinase domain = molecular target: T2, c-Abl kinase domain (Mus musculus, UniProt P00520); experiment: pTyr-Var library bacterial peptide display kinase screen (enrichment scores); assay type: biochemical; conditions: for Screen: fig5-data2, sheet "Abl", Screen for the variant/reference peptide pair;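 on c-Abl hit?: Hit requires p below 0.05 and at least twofold variant vs reference change plus filters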;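 on screen: log2 fold change in enrichment of variant over reference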
# T2 sequence (P00520 242-493 limits assumed): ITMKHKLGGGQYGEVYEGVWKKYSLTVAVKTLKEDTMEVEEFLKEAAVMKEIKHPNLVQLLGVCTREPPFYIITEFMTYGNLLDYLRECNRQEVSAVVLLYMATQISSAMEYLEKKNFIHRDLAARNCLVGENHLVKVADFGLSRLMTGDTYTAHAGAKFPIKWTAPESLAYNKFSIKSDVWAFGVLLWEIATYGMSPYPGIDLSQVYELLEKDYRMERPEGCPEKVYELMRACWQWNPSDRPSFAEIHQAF
# c-Src kinase domain [2] = molecular target: T1, c-Src kinase domain; experiment: as above; assay type: biochemical; conditions: for Screen: sheet "Src"
# EPHB2 kinase domain = experiment: as above; assay type: biochemical, human; conditions: for Screen: sheet EPHB2, effect of variant peptide relative to its reference peptide in the pTyr-Var library screen (enrichment scores);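 on screen: log2 fold change in enrichment of variant over reference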
# EPHB1 kinase domain = experiment: as above; assay type: biochemical, human; conditions: for Screen: sheet EPHB1, effect of the variant peptide relative to its reference peptide in the pTyr-Var library screen (enrichment scores);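 on screen: log2 fold change in enrichment of variant over reference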
# Fer kinase domain = experiment: as above; assay type: biochemical, mouse; conditions: for Screen: sheet "Fer", value of the variant peptide against its reference peptide in the pTyr-Var library screen with Fer;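 on Fer hit?: Hit requires p below 0.05 and at least twofold variant vs reference change plus filters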;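 on screen: log2 fold change in enrichment of variant over reference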
# Grb2 SH2 domain = experiment: pTyr-Var library SH2 domain screen with SH2-dynabeads (enrichment scores)
# Fes = experiment: pTyr-Var library bacterial peptide display kinase screen (enrichment scores); assay type: biochemical
# c-Src SH2 domain = c-Src SH2 domain (Homo sapiens, UniProt P12931); experiment: pTyr-Var library SH2 domain screen with SH2-dynabeads (enrichment scores); conditions: sheet c-Src
# AncSZ kinase domain = experiment: pTyr-Var library bacterial peptide display kinase screen (enrichment scores); assay type: biochemical;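 on AncSZ hit?: Hit requires p below 0.05 and at least twofold variant vs reference change plus filters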
# FGFR1 kinase domain = experiment: as above; assay type: biochemical, human
# FGFR3 kinase domain = experiment: as above; assay type: biochemical, human
# Jak2 = experiment: as above; assay type: biochemical, human
# MERTK kinase domain = experiment: as above; assay type: biochemical, human
# Hck kinase domain = experiment: as above; assay type: biochemical, human
# SHP2 C-SH2 domain = experiment: pTyr-Var library SH2 domain screen with SH2-dynabeads (enrichment scores)
# Fyn kinase domain = experiment: pTyr-Var library bacterial peptide display kinase screen (enrichment scores); assay type: biochemical, human
# [3] = effect of the variant peptide relative to its reference peptide in the pTyr-Var library screen
# [4] = mean of log2 of enrichment over R1-R4
# [5] = pTyr-Var library, enrichment score, replicate 1
# [6] = pTyr-Var library, enrichment score, replicate 3
# [7] = pTyr-Var library, enrichment score, replicate 4
# [8] = variant versus reference peptide, significant hit TRUE/FALSE
# [9] = variant versus reference peptide
# [10] = mean of log2(variant) minus mean of log2(reference)
# [11] = mean of log2 enrichment of variant peptide, n = 4
# [12] = mean of log2 enrichment of variant peptide, n = 5
# 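Wherever c-Src hit? is given: Hit requires p below 0.05 and at least twofold variant vs reference change plus filters.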
# 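Wherever screen is given: log2 fold change in enrichment of variant over reference.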
substance,measurement,setting,value
"Ac-GAEEEIYGEFEAKKKG-NH2 [SrcTide (1995), previously reported c-Src consensus substrate (Songyang et al., 1995)]",Km,c-Src kinase domain [1],64 ± 10 µM
same,kcat,c-Src kinase domain [1],3.1±0.2 s^–1
FSMGCYEIFLG [HMGCL_Y198_S201Y_YF],Screen,c-Abl kinase domain; pTyr-Var library,0.9187
same,Screen,c-Src kinase domain [2]; [3],1.946
same,Screen,EPHB2 kinase domain,0.8942
same,Screen,EPHB1 kinase domain,0.9243
same,Screen,Fer kinase domain,1.084
GMAHNYRNRSQ [AASS_Y188_S191R],difference,"Grb2 SH2 domain; Grb2 SH2, mean of log2(variant) minus mean of log2(reference)",-0.06902
same,mean of log2(variant),"Grb2 SH2 domain; Grb2 SH2, mean of log2 enrichment of variant, R1-R3",-0.6418
same,hit?,"Grb2 SH2 domain; Grb2 SH2, variant versus reference significant hit call",FALSE
same,c-Abl mean of log2(enrichment),c-Abl kinase domain; [4],-0.8983
same,c-Abl enrich. R1,c-Abl kinase domain; [5],0.3489
same,c-Abl enrich. R3,c-Abl kinase domain; [6],0.6113
same,c-Abl enrich. R4,c-Abl kinase domain; [7],0.4438
same,c-Abl hit?,c-Abl kinase domain; [8],FALSE
same,Fes mean of log2(enrichment),Fes; mean of log2 of enrichment over R1-R6,-0.768
same,Fes difference (mean log2 variant - mean log2 reference),Fes; [9],0.4232
same,c-Src mean of log2(enrichment),c-Src kinase domain [2]; [4],-1.078
same,c-Src enrich. R1,c-Src kinase domain [2]; [5],0.5961
same,c-Src enrich. R3,c-Src kinase domain [2]; [6],0.5045
same,c-Src enrich. R4,c-Src kinase domain [2]; [7],0.4581
same,c-Src difference (mean log2 variant - mean log2 reference),c-Src kinase domain [2]; [9],0.3253
same,c-Src hit?,c-Src kinase domain [2]; [8],FALSE
same,difference,EPHB2 kinase domain; [10],-0.2462
same,mean of log2(variant),EPHB2 kinase domain; [11],-1.376
same,difference,c-Src SH2 domain; [10],-0.07136
same,mean of log2(variant),"c-Src SH2 domain; mean of log2 enrichment of variant peptide, R1-R3",-1.19
same,AncSZ mean of log2(enrichment),AncSZ kinase domain; mean of log2 of enrichment over R1-R5,-0.8229
same,AncSZ enrich. R1,AncSZ kinase domain; [5],0.4421
same,AncSZ enrich. R3,AncSZ kinase domain; [6],0.7733
same,AncSZ enrich. R4,AncSZ kinase domain; [7],0.7058
same,AncSZ enrich. R5,"AncSZ kinase domain; pTyr-Var library, enrichment score, replicate 5",0.7616
same,AncSZ difference (mean log2 variant - mean log2 reference),AncSZ kinase domain; [9],-0.03377
same,AncSZ hit?,AncSZ kinase domain; [8],FALSE
same,difference,FGFR1 kinase domain; [10],-0.1712
same,mean of log2(variant),FGFR1 kinase domain; [12],-1.608
same,var. mean,"FGFR1 kinase domain; pTyr-Var library, variant peptide enrichment, mean of n = 5",0.3444
same,difference,FGFR3 kinase domain; [10],-0.0947
same,mean of log2(variant),FGFR3 kinase domain; [12],-1.326
same,Jak2 mean of log2(enrichment),Jak2; mean of log2 of enrichment over R1-R3,-1.127
same,Jak2 enrich. R3,Jak2; [6],0.7448
same,Jak2 difference (mean log2 variant - mean log2 reference),Jak2; [9],0.1075
same,Jak2 hit?,Jak2; [8],FALSE
same,difference,MERTK kinase domain; [10],0.1021
same,mean of log2(variant),MERTK kinase domain; [11],-1.214
same,Hck mean of log2(enrichment),"Hck kinase domain; mean of log2(variant) / mean of log2(reference), R1-R4",0.5234
same,Hck enrich. R1,Hck kinase domain; [5],0.3364
same,Hck enrich. R3,Hck kinase domain; [6],0.4885
same,Hck enrich. R4,Hck kinase domain; [7],0.9262
same,Hck difference (variant - reference),Hck kinase domain; [9],0.1099
same,Hck hit?,Hck kinase domain; [8],FALSE
same,difference,"SHP2 C-SH2 domain; SHP2-C SH2, mean of log2(variant) minus mean of log2(reference)",-0.6126
same,mean of log2(variant),"SHP2 C-SH2 domain; SHP2-C SH2, mean of log2 enrichment of variant, R1-R3",-1.425
same,hit?,"SHP2 C-SH2 domain; SHP2-C SH2, variant versus reference significant hit call",FALSE
same,difference,EPHB1 kinase domain; [10],0.7368
same,mean of log2(variant),EPHB1 kinase domain; [11],-1.347
same,Fer mean of log2(enrichment),Fer kinase domain; [4],-1.585
same,Fer enrich. R1,Fer kinase domain; [5],0.273
same,Fer enrich. R3,Fer kinase domain; [6],0.5188
same,Fer enrich. R4,Fer kinase domain; [7],0.4406
same,Fer difference (mean log2 variant - mean log2 reference),Fer kinase domain; [9],-0.1949
same,Fer hit?,Fer kinase domain; [8],FALSE
same,Fyn mean of log2(enrichment),Fyn kinase domain; [4],-1.18
same,Fyn enrich. R1,Fyn kinase domain; [5],0.3131
same,Fyn enrich. R3,Fyn kinase domain; [6],0.443
same,Fyn enrich. R4,Fyn kinase domain; [7],0.884
same,Fyn difference (mean log2 variant - mean log2 reference),Fyn kinase domain; [9],0.1477
same,Fyn hit?,Fyn kinase domain; [8],FALSE
IKRIDYEFVEM [ADA_Y84_A83D],Screen,c-Abl kinase domain; pTyr-Var library,0.5744
same,Screen,EPHB2 kinase domain,2.863
same,Screen,EPHB1 kinase domain,3.957
same,Screen,Fer kinase domain,-0.7273
RTVPLYESLRK [DDB1_Y718_P721L],Screen,c-Src kinase domain [2]; [3],1.169
same,Screen,EPHB2 kinase domain,-0.0735
same,Screen,EPHB1 kinase domain,0.1495
same,Screen,Fer kinase domain,-0.4469
SEPDLYFDPRG [PKP1_Y160_C161Y_YF],Screen,c-Src kinase domain [2]; variant peptide versus its reference peptide in the pTyr-Var library screen,1.044
same,Screen,EPHB2 kinase domain,1.913
same,Screen,EPHB1 kinase domain,1.592
same,Screen,Fer kinase domain,-1.5
